Measured values from ChEMBL document CHEMBL1153812, “Hydrolytic cleavage of DNA by urea-bridged macrocyclic polyamines” (Eur J Med Chem, 2009).
Active and inactive are the calls of the source. No cut-off for these calls is given here.

Columns and labels:
Format in all cases: nucleic-acid assay
Nucleic Acid [1] = experiment: Induction of supercoiled Escherichia coli pUC19 DNA cleavage assessed as formation of open-circular DNA at 357 uM after 36 hrs by agarose gel electrophoresis
Nucleic Acid [2] = experiment: Binding affinity to calf thymus duplex DNA assessed as change in viscosity of DNA at 20 mM by viscometric analysis; conditions: Bos taurus
Nucleic Acid [3] = experiment: Induction of supercoiled Escherichia coli pUC19 DNA cleavage assessed as formation of open-circular DNA at 357 uM after 32 hrs by agarose gel electrophoresis
Nucleic Acid [4] = experiment: Induction of supercoiled Escherichia coli pUC19 DNA cleavage assessed as formation of open-circular DNA at 357 uM after 36 hrs by agarose gel electrophoresis in presence of […]
Nucleic Acid [5] = experiment: Induction of supercoiled Escherichia coli pUC19 DNA cleavage assessed as formation of open-circular DNA at 143 uM after 36 hrs by agarose gel electrophoresis
Nucleic Acid [6] = experiment: Induction of supercoiled Escherichia coli pUC19 DNA cleavage assessed as formation of open-circular DNA at 357 uM after 36 hrs by agarose gel electrophoresis in presence of singlet oxygen scavenger NaN3
Nucleic Acid [7] = experiment: Induction of supercoiled Escherichia coli pUC19 DNA cleavage assessed as formation of open-circular DNA at 357 uM after 36 hrs by agarose gel electrophoresis in presence of hydroxyl radical scavenger t-BuOH
Nucleic Acid [8] = experiment: Induction of supercoiled Escherichia coli pUC19 DNA cleavage assessed as formation of open-circular DNA at 71 uM after 36 hrs by agarose gel electrophoresis
Nucleic Acid [9] = experiment: Induction of supercoiled Escherichia coli pUC19 DNA cleavage assessed as formation of open-circular DNA at 286 uM after 36 hrs by agarose gel electrophoresis
Nucleic Acid [10] = experiment: Induction of supercoiled Escherichia coli pUC19 DNA cleavage assessed as formation of open-circular DNA at 214 uM after 36 hrs by agarose gel electrophoresis
Nucleic Acid [11] = experiment: Induction of supercoiled Escherichia coli pUC19 DNA cleavage assessed as formation of open-circular DNA at 357 uM after 36 hrs by agarose gel electrophoresis in presence of hydroxyl radical scavenger DMSO
Nucleic Acid [12] = experiment: Binding affinity to calf thymus duplex DNA assessed as thermal melting temperature at 0.11 mM by UV-visible spectrophotometry; conditions: Bos taurus
Nucleic Acid [13] = experiment: Induction of supercoiled Escherichia coli pUC19 DNA cleavage assessed as formation of open-circular DNA at 0.285 mM after 36 hrs by TBARS method in presence of hydroxy radical
Nucleic Acid [14] = experiment: Induction of supercoiled Escherichia coli pUC19 DNA cleavage assessed as formation of open-circular DNA at 286 uM by agarose gel electrophoresis; conditions: TDE = time-dependent effect

CC(NC(=O)NC(C)C(=O)N1CCNCCNCCNCC1)C(=O)N1CCNCCNCCNCC1 (stereo not given)
Activity (Nucleic Acid [1]): 97%
Activity (Nucleic Acid [2]): Active
Activity (Nucleic Acid [3]): 97%
Activity (Nucleic Acid [4]): Active
Activity (Nucleic Acid [5]): 59%
Activity (Nucleic Acid [6]): Active
Activity (Nucleic Acid [7]): Active
Activity (Nucleic Acid [8]): 29%
Activity (Nucleic Acid [9]): 89%
Activity (Nucleic Acid [10]): 72%
Activity (Nucleic Acid [11]): Active
Tm (Nucleic Acid [12]): 75.7 °C
Activity (Nucleic Acid [13]): Active
Activity (Nucleic Acid [14]): tde

COC(=O)C(C)NC(=O)NC(C)C(=O)OC (stereo not given)
Activity (Nucleic Acid [1]): Active
Activity (Nucleic Acid [2]): Active
Tm (Nucleic Acid [12]): 76.6 °C

CCNC(=O)NC(C)C(=O)N1CCNCCNCCNCC1 (stereo not given)
Activity (Nucleic Acid [1]): Active
Activity (Nucleic Acid [2]): Active
Tm (Nucleic Acid [12]): 77.6 °C
